Source: US11318140B2, “Use of TRPV4 antagonists to ameliorate hydrocephalus and related materials and methods” (Indiana University Research and Technology Corporation, priority 2012, dated 2022)
Entries after “also recorded” stand apart in the source; their conditions may differ.

Assays:
Format in all cases: in vivo, rat
Wistar Wpk/Wpk rats [1] = assay: Renal pathology (kidney weight) in Wpk/Wpk rats; conditions: day 8 through 17
Protocol: (§1) Wistar Wpk/Wpk rats are an orthologous model of human type 3 Meckel Syndrome. Meckel Syndrome is a cilliopathology with both renal cystic and brain pathology. The brain pathology is severe hydrocephalus with hypoplasia of the corpus callosum.
(§2) The inventors treated Wpk/Wpk affected as well as noncystic littermates with either TRPV4 agonist (GSK1016797, 0.003 mg/kg body weight) or antagonist (HC067047, 0.03 mg/kg) from day 8 through 17 and evaluated the cranial enlargement and cerebral manifestations. Both drugs were dissolved in DMSO prior to dilution with normal saline prior to injection (i.p.).
(§3) Wpk/Wpk affected as well as noncystic littermates were treated with TRPV4 antagonist RN-1734 from day 8 through 17 and evaluated the kidney weight and cerebral manifestations (bitemporal head diameter and vertical head dimensions/cranial height). Both drugs were dissolved in DMSO prior to dilution with normal saline prior to injection (i.p.).

Wistar Wpk/Wpk rats [2] = assay: Hydrocephalic cranial/head enlargement in Wpk/Wpk rats; conditions: day 8 through 17
Protocol: as §1, §2, §3

[3] = system: Wpk/Wpk hydrocephalic rats; assay: Cortical thickness from coronal sections of Wpk/Wpk hydrocephalic rats; conditions: 0.03 mg/kg body weight, day 8-17; measured at day 17; p<0.0001
From the text: as §1
Cortical thickness measured from coronal sections of Wpk/Wpk hydrocephalic rats at day 17. […] This finding is in agreement with the decreased degree of hydrocephalus in the antagonist treated animals and, therefore, have a decreased loss in cerebral cortex.

[4] = Example 3: i.p., dose not given

In the case of `Cc1c(C(=O)Nc2cccc(C(F)(F)F)c2)cc(-c2ccccc2)n1CCCN1CCOCC1` [HC067047], the renal pathology (Wistar Wpk/Wpk rats [1]; Example 2: agonist 0.003 mg/kg, antagonist 0.03 mg/kg, i.p.) is reported as “did not affect the renal pathology”, the “activity and alertness of treated rats” value (Wistar Wpk/Wpk rats [2]; 0.03 mg/kg i.p.) is reported as “very active and alert like their nonaffected littermates” and the “head dimensions, treated affected rats versus normal littermates” value (Wistar Wpk/Wpk rats [2]; 0.03 mg/kg i.p.) is reported as “no difference in head dimensions”. For the same compound, the “hydrocephalic enlargement of the cranium/brain (head measurements)” value (Wistar Wpk/Wpk rats [2]; 0.03 mg/kg i.p., affected Wpk/Wpk rats) was “almost totally ameliorate; also recorded: significantly less hydrocephalic head measurements” and the cortical thickness [3] was “increased cortical thickness”.

`CC(C)NCCN(C(C)C)S(=O)(=O)c1ccc(Cl)cc1Cl` [RN-1734] was tested, and the “renal pathology (kidney weight)” value (Wistar Wpk/Wpk rats [1]; [4]) was “did not affect the renal pathology”, the “activity and alertness of treated rats” value (Wistar Wpk/Wpk rats [2]; [4]) was “very active and alert like their nonaffected littermates” and the “head dimensions, treated affected rats versus normal littermates” value (Wistar Wpk/Wpk rats [2]; [4]) was “no difference in head dimensions”. The “hydrocephalic enlargement of the cranium/brain (bitemporal head diameter, vertical head dimension)” value (Wistar Wpk/Wpk rats [2]; [4]) was “almost totally ameliorate”.
